Measurements published in patent US6160008A, “Pharmaceutical compositions comprising S-alkylisothiouronium derivatives” (priority 1996, dated 2000).
“Also recorded” adds a separate entry of the source.

How the values were obtained:
arterial blood pressure = test: Clinical testing under spinal epidural anesthesia; type: in vivo, patients; conditions: urological operations
Method: This experiment was conducted at the General Anesthesia Department of the First Republican Hospital of Moldova. The goal of this clinical study was to estimate the ability of Difetur to act as a hypertensive drug, compared to the known adrenergic drug--ephedrine. The experiments were performed on one hundred patients, underwent urological operations under spinal epidural anesthesia, their age being between 20 and 80. The following findings are presented in view of Difetur: […]

[1] = Biochemical indices of mice blood serum, chronic experiment (Table 9); type: in vivo, F1 (C57B1×CBA); conditions: for Body mass / Glucose / Total cholestrol / Total protein: 100 mg/kg i.v.; for Total protein: in g/L (unit assumed)
Method: (§1) The effect of S-ethylisothiouronium diethylphosphate on body constituents was estimated in chronic and acute experiments. These experiments were conducted on F1 (C57B1×CBA) line mice and biochemical tests were made after a single administration of S-ethylisothiouronium diethylphosphate, injected intravenously at doses of 100 mg/kg (in the chronic experiment) and 500 mg/kg (in the acute experiment).
(§2) In the acute experiment, blood was taken 30, 60 and 75 minutes after the administration of the medicine. In the chronic experiment (which lasted 30 days), blood was daily examined 1 hour after the injection. Terms of the study were 1, 7, 14, and 21 days. The concentrations of total protein, total cholesterol, and glucose in mice blood serum were determined by conventional methods. Total protein was determined by a biuret method, total cholesterol--by like method, glucose--by the glucose-oxidase method.
(§3) Mouse blood was obtained after rapid decapitation. Tested material was sampled at the same time of the day and on the same season.
(§4) Blood for serum was sampled into centrifuge test tubes, put into the thermostat for 30-40 minutes; the clot was outlined by a needle, then it was put into a refrigerator for 1 hour+4° C. After cooling it was centrifuged at 3000 RPM during 10-15 minutes. Serum with no signs of hemolysis was sampled into a clean tube. All quantitative indices of the blood biochemical characteristics were obtained by spectrophotometric measurements. Calibration curves to determine total protein and cholesterol were constructed in advance.

[2] = Biochemical tests of dog blood serum and general toxicity, 3-day experiment (Tables 10-14); type: in vivo; conditions: 10 mg/kg i.v. daily, 3 days, dogs
Method: In an experiment on dogs, the functional condition of the organism was estimated by biochemical tests, after the intravenous injection of a 10% solution S-ethylisothiouronium diethylphosphate, at a dose of 10 mg/kg daily. This experiment was conducted at the same time of the day. Blood was examined 1 hour after the administration of the preparation during 3 successive days and on the 4th, the 5th and on the 10th day after injection. The concentrations of total protein, of albumin, globulins, total cholesterol, and glucose in dog blood serum were determined by conventional methods. The total protein content was determined by biureth method, total cholesterol--by like method, glucose--by glucose-oxidase method.
The general toxicity and biochemical parameters were determined in a 3-day experiment, where a 10% solution of the preparation was daily intravenously injectioned at a dose of 10 mg/kg.

[3] = Biochemical indices of mice blood serum, acute experiment (Table 8); type: in vivo, F1 (C57B1×CBA); conditions: 500 mg/kg i.v.; for Total protein: in g/L (unit assumed)
Method: as §1, §2, §3, §4

[4] = test system: acid-base balance and gas composition of mixed venous blood; test: Acid-base balance and gas composition of mixed venous blood in hemorrhagic shock (Table 7); type: in vivo, cats; conditions: 5 mg/kg i.v.; for Bicarbonate ion content (HCO3 a) / Buffer bases (BBa) / Buffer bases shift (BBa) / Carbonic acid gas tension (PaCO2): mixed venous blood
Method: (§5) The influence of S-ethylisothiouronium diethylphosphate on the major indices of the blood acid-base state (AAS) and gas content in hemorrhagic shock was studied at a dose of 5 mg/kg. The cats were narcotized intraperitoneally with pentobarbital sodium (nembutal) at a dose of 40 mg/kg. The blood loss was caused by blood-letting from the common carotid artery in an amount of 3.2% of the animal body mass, which approximately corresponds to 45-47% of the blood circulation volume. The blood-letting was carried out during 3-5 minutes. Tension characteristics of oxygen and carbon dioxide in arterial (PaO2, PaCO2) and mixed venous (PvO2, PvCO2) blood, pHa and pH were studied by Astrup micromethod. The hemoglobin content (Hb) was determined by the cianohemoglobin method. Bicarbonate ion content /HCO3 was calculated with the help of the Severinghause ruler. Calculations were carried out on the CM-1403-02 computer in the Forhtran language program. Indices of the acid-base balance and blood gas content were studied in the initial state, on the 30th minute after acute bleeding as well as on 2nd, 10th, 30th, and 60th minute after the medicine injection. The substance was injected singly intravenously on the 30th minute after the blood-letting.
(§6) In the test group (n=6), S-ethylisothiouronium diethylphosphate was injected at a dose of 5 mg/kg.

[5] = test system: acid-base balance and gas composition of arterial blood; test: Acid-base balance and gas composition of arterial blood in hemorrhagic shock (Table 6); type: in vivo, cats
Method: as §5, §6

[6] = 5 mg/kg i.v., 10 min after injection
[7] = 5 mg/kg i.v., 30 min after injection
[8] = 5 mg/kg i.v., 60 min after injection

SMILES: CCSC(=N)N [S-ethylisothiouronium diethylphosphate]
- Duration of hypertensive action (arterial blood pressure): 40 to 60 min
- Time until blood pressure attains the initial value (arterial blood pressure): ≤ 90 min
- Clinical safety findings (arterial blood pressure; listed as Difetur): No cases of secondary hypertension were observed; also recorded: No complications of allergic type of the blood circulation or respiration were observed
- Effect on patient's blood pressure in words (arterial blood pressure; listed as Difetur): prevented the decrease in the patient's blood pressure; also recorded: blood pressure of the patients remained stable; also recorded: rapid and prolonged effect on arterial blood pressure
- Body mass ([1]; 1st day): 23.8 ± 0.1 g
- Glucose ([1]; 1st day): 7.1 ± 1.4 mmol/L
- Total cholestrol ([1]; 1st day): 4.7 ± 0.9 mmol/L
- Total protein ([1]; 1st day): 75.6 ± 4.9
- Body mass ([1]; 7th day): 24.0 ± 0.2 g
- Glucose ([1]; 7th day): 8.2 ± 1.8 mmol/L
- Total cholestrol ([1]; 7th day): 5.0 ± 0.6 mmol/L
- Total protein ([1]; 7th day): 63.5 ± 4.4
- Body mass ([1]; 14th day): 28.1 ± 0.3 g
- Glucose ([1]; 14th day): 8.8 ± 1.7 mmol/L
- Total cholestrol ([1]; 14th day): 3.0 ± 0.36 mmol/L
- Total protein ([1]; 14th day): 72.4 ± 3.3
- Body mass ([1]; 21st day): 26.1 ± 0.5 g
- Glucose ([1]; 21st day): 9.9 ± 1.8 mmol/L
- Total cholestrol ([1]; 21st day): 4.9 ± 0.42 mmol/L
- Total protein ([1]; 21st day): 74.9 ± 2.4
- Serum biochemistry in words ([1]; 100 mg/kg, chronic experiment): fluctuations of the studied parameters do not exceed the limits of physiological fluctuations
- General toxicity and serum biochemistry in words [2]: wavy fluctuations with the tendency to decrease on the 4th and 5th day; also recorded: The level of albumins and globulins also changed in a wavy manner; also recorded: The level of total cholesterol and glucose had slight fluctuations which did not overstep the fluctuation limits of healthy dogs; also recorded: no evidence was found for intoxication or any significant deviation between the parameters studied and the initial data; also recorded: individual sensitivity of the animals to intravenous injection of the preparation was not found
- Body mass ([3]; 30 min): 24.8 ± 1.2 g
- Glucose ([3]; 30 min): 13.4 ± 2.6 mmol/L
- Total cholestrol ([3]; 30 min): 7.8 ± 1.2 mmol/L
- Total protein ([3]; 30 min): 99.0 ± 4.3
- Serum biochemistry in words ([3]; 30 minutes): an increase in the concentration of total protein, cholesterol and glucose was observed, which subsequently had the tendency for normalization
- Body mass ([3]; 60 min): 26.1 ± 1.8 g
- Glucose ([3]; 60 min): 9.0 ± 0.8 mmol/L
- Total cholestrol ([3]; 60 min): 7.2 ± 1.6 mmol/L
- Total protein ([3]; 60 min): 89.4 ± 4.6
- Body mass ([3]; 75 min): 26.0 ± 0.5 g
- Glucose ([3]; 75 min): 6.6 ± 1.0 mmol/L
- Total cholestrol ([3]; 75 min): 5.4 ± 1.2 mmol/L
- Total protein ([3]; 75 min): 87.6 ± 3.8
- Oxygen tension (PvO2) ([4]; 10 min): 41.866 ± 11.242
- pHv ([4]; 10 min after injection): 7.252 ± 0.011
- Oxygen tension (PvO2) ([4]; 30 min): 40.533 ± 11.332
- pHv ([4]; 30 min after injection): 7.222 ± 0.016
- Oxygen tension (PvO2) ([4]; 60 min): 27.783 ± 4.824
- pHv ([4]; 60 min after injection): 7.150 ± 0.130
- Bicarbonate ion content (HCO3 a) ([4]; 10 min): 17.116 ± 1.576 mmol/L
- Buffer bases (BBa) ([4]; 10 min): 34.500 ± 2.342 mmol/L
- Buffer bases shift (BBa) ([4]; 10 min): -8.500 ± 1.491 mmol/L
- Carbonic acid gas tension (PaCO2) ([4]; 10 min): 40.516 ± 4.340 mm Hg
- Bicarbonate ion content (HCO3 a) ([4]; 30 min): 16.150 ± 1.951 mmol/L
- Buffer bases (BBa) ([4]; 30 min): 32.266 ± 3.254 mmol/L
- Buffer bases shift (BBa) ([4]; 30 min): -9.966 ± 1.388 mmol/L
- Carbonic acid gas tension (PaCO2) ([4]; 30 min): 40.350 ± 4.611 mm Hg
- Bicarbonate ion content (HCO3 a) ([4]; 60 min): 17.800 ± 2.162 mmol/L
- Buffer bases (BBa) ([4]; 60 min): 33.833 ± 3.943 mmol/L
- Buffer bases shift (BBa) ([4]; 60 min): -11.266 ± 2.569 mmol/L
- Carbonic acid gas tension (PaCO2) ([4]; 60 min): 55.533 ± 5.049 mm Hg
- Bicarbonate ion content increase, arterial blood ([5]; 5 mg/kg i.v., 10th minute): 5%
- Bicarbonate ion content increase, arterial blood ([5]; 5 mg/kg i.v., 30th minute): 16%
- Bicarbonate ion content (HCO3 a) [5, 6]: 15.583 ± 1.333 mmol/L
- Buffer bases (Bba) [5, 6]: 34.150 ± 1.364 mmol/L
- Buffer bases shift (Bea) [5, 6]: -7.866 ± 1.095 mmol/L
- Carbonic acid gas tension (PaCO2) [5, 6]: 28.616 ± 2.858 mm Hg
- Oxygen tension (PaO2) [5, 6]: 94.483 ± 6.012
- pHa [5, 6]: 7.252±0.018
- Decrease of partial pressure of carbon dioxide (arterial and venous blood) ([5]; 5 mg/kg i.v., 10 minute, vs 30th minute after blood letting): 9%
- Bicarbonate ion content (HCO3 a) [5, 7]: 17.083 ± 1.065 mmol/L
- Buffer bases (Bba) [5, 7]: 34.966 ± 3.534 mmol/L
- Buffer bases shift (Bea) [5, 7]: -8.016 ± 1.436 mmol/L
- Carbonic acid gas tension (PaCO2) [5, 7]: 31.083 ± 1.933 mm Hg
- Oxygen tension (PaO2) [5, 7]: 95.466 ± 7.144
- pHa [5, 7]: 7.310±0.064
- Bicarbonate ion content (HCO3 a) [5, 8]: 15.900 ± 3.033 mmol/L
- Buffer bases (Bba) [5, 8]: 32.733 ± 5.616 mmol/L
- Buffer bases shift (Bea) [5, 8]: -9.450 ± 3.903 mmol/L
- Carbonic acid gas tension (PaCO2) [5, 8]: 35.217 ± 7.339 mm Hg
- Oxygen tension (PaO2) [5, 8]: 85.550 ± 6.575
- pHa [5, 8]: 7.208 ± 0.036
- Effect on acid-base balance and blood gases in words ([5]; arterial blood, hemorrhagic shock): does not influence negatively the acid-base balance; also recorded: corrects the metabolic acidosis caused by the loss of blood; also recorded: it had the tendency to increase in the arterial blood, and to decrease in the venous blood
